pIC50: −log10 of the molar value.
Target: Voltage-dependent L-type calcium channel subunit alpha-1C (Cavia porcellus, UniProt O35505)
Experiment: Inhibition of calcium channel in Cavia porcellus (guinea pig) ileum assessed as inhibition of KCl-induced contraction
Format: tissue-based

Sequence of Voltage-dependent L-type calcium channel subunit alpha-1C (O35505 whole entry): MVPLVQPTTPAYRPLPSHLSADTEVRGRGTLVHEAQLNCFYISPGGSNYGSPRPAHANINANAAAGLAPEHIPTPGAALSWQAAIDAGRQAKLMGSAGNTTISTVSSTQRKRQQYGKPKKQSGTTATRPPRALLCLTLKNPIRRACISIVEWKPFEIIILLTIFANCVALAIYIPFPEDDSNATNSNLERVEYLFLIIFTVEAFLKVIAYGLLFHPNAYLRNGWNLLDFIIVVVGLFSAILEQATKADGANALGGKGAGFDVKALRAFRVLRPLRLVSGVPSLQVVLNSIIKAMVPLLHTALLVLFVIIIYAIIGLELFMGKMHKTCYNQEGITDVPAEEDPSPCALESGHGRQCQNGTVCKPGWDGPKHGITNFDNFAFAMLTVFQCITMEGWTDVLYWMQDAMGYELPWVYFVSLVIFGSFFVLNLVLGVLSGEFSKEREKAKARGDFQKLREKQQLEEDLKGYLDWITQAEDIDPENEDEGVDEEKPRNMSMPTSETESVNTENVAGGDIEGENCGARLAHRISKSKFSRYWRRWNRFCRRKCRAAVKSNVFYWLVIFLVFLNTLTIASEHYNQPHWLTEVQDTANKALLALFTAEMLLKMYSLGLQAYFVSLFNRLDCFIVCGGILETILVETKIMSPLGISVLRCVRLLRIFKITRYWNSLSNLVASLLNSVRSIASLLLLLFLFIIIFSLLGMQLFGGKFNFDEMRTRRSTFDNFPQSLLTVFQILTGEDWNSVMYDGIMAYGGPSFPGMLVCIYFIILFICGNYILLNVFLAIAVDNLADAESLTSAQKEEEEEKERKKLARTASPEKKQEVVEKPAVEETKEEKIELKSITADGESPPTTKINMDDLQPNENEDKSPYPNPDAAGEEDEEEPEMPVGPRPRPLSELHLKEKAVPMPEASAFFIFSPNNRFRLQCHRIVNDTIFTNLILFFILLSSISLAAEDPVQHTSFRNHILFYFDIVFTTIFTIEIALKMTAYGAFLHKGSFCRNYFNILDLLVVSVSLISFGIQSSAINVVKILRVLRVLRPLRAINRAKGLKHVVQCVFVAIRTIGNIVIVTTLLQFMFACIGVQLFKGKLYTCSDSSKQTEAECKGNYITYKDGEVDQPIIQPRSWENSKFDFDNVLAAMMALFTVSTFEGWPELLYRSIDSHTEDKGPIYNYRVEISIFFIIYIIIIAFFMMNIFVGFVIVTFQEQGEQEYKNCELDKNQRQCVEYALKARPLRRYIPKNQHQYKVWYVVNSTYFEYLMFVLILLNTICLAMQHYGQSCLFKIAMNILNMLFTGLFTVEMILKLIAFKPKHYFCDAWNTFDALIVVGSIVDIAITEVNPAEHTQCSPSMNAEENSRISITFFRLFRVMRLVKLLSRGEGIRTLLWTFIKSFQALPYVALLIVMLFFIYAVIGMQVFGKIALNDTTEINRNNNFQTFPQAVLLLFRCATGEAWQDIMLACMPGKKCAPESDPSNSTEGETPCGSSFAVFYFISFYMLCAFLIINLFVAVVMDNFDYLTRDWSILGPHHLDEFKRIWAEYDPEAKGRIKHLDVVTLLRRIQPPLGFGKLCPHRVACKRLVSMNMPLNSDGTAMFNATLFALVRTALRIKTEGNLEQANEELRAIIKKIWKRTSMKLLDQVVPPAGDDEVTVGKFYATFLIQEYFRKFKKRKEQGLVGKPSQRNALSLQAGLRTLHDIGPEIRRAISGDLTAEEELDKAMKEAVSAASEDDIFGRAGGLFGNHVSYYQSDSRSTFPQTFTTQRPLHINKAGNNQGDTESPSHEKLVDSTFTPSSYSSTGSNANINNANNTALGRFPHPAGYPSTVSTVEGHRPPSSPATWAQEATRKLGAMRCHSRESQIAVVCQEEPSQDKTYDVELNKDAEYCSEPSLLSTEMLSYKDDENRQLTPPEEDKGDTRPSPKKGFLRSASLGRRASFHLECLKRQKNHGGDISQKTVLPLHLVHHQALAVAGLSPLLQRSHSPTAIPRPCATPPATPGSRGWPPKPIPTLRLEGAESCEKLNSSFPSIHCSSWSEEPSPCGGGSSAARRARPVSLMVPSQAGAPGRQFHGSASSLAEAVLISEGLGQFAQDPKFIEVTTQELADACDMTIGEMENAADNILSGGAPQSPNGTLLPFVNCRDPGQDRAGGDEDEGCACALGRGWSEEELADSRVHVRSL

pIC50 | Compound
9.88 | CCc1nc(Cl)c(C2C(C(=O)OC3CCCCC3)=C(C)NC(C)=C2C(=O)OC2CCCCC2)[nH]1
9.67 | CCc1nc(Cl)c(C2C(C(=O)OC3CCCC3)=C(C)NC(C)=C2C(=O)OC2CCCC2)[nH]1
7.29 | CCc1nc(Cl)c(C2C(C(=O)OC)=C(C)NC(C)=C2C(=O)OC(C)(C)C)[nH]1 (stereo not drawn)
9.22 | CCc1nc(Cl)c(C2C(C(=O)OC)=C(C)NC(C)=C2C(=O)OC)[nH]1
8.97 | CCOC(=O)C1=C(C)NC(C)=C(C(=O)OCC2CCCCC2)C1c1[nH]c(CC)nc1Cl (stereo not drawn)
9.25 | CCOC(=O)C1=C(C)NC(C)=C(C(=O)OC(C)C)C1c1[nH]c(CC)nc1Cl (stereo not drawn)
9.27 | CCCOC(=O)C1=C(C)NC(C)=C(C(=O)OCC)C1c1[nH]c(CC)nc1Cl (stereo not drawn)
9.80 | CCOC(=O)C1=C(C)NC(C)=C(C(=O)OCC)C1c1[nH]c(CC)nc1Cl
9.31 | CCc1nc(Cl)c(C2C(C(=O)OC)=C(C)NC(C)=C2C(=O)OC(C)C)[nH]1 (stereo not drawn)
8.70 | CCOC(=O)C1=C(C)NC(C)=C(C(=O)OC)C1c1[nH]c(CC)nc1Cl (stereo not drawn)
9.84 | CCCOC(=O)C1=C(C)NC(C)=C(C(=O)OC)C1c1[nH]c(CC)nc1Cl (stereo not drawn)

More lines, now with the values behind:

Compound | pIC50
CCc1nc(C2C(C(=O)OCc3ccccc3)=C(C)NC(C)=C2C(=O)OCc2ccccc2)c(Cl)[nH]1 | 9.04
CCOC(=O)C1=C(C)NC(C)=C(C(=O)OCc2ccccc2)C1c1[nH]c(CC)nc1Cl (stereo not drawn) | 8.57
CCc1nc(C2C(C(=O)OCCc3ccccc3)=C(C)NC(C)=C2C(=O)OCCc2ccccc2)c(Cl)[nH]1 | 10.36
CCOC(=O)C1=C(C)NC(C)=C(C(=O)OC(C)(C)C)C1c1[nH]c(CC)nc1Cl (stereo not drawn) | 7.00
CCc1nc(Cl)c(C2C(C(=O)OCCCc3ccccc3)=C(C)NC(C)=C2C(=O)OCCCc2ccccc2)[nH]1 | 10.18
CCc1nc(C2C(C(=O)OC)=C(C)NC(C)=C2C(=O)OCCc2ccccc2)c(Cl)[nH]1 (stereo not drawn) | 10.51
CCc1nc(Cl)c(C2C(C(=O)OC(C)C)=C(C)NC(C)=C2C(=O)OC(C)C)[nH]1 | 9.13
CCc1nc(Cl)c(C2C(C(=O)OC)=C(C)NC(C)=C2C(=O)OCc2ccccc2)[nH]1 (stereo not drawn) | 8.76
CCc1nc(Cl)c(C2C(C(=O)OC(C)(C)C)=C(C)NC(C)=C2C(=O)OC(C)(C)C)[nH]1 | 7.47
CCOC(=O)C1=C(C)NC(C)=C(C(=O)OCCc2ccccc2)C1c1nc(CC)[nH]c1Cl (stereo not drawn) | 10.34
CCCOC(=O)C1=C(C)NC(C)=C(C(=O)OCCC)C1c1[nH]c(CC)nc1Cl | 9.89
CCc1nc(Cl)c(C2C(C(=O)OCC(C)C)=C(C)NC(C)=C2C(=O)OCC(C)C)[nH]1 | 8.58
